Measurements: patent US20230235374A1, “High Throughput Assays for Detecting Translation Readthrough Inducers” (The Trustees of the University of Pennsylvania, priority 2021, published 2023)

Assays:
[1] = tested on: Stop-POST5 / Stop-PRE6 complex; assay: High throughput translocation assay (proflavin fluorescence, plate reader); format: biochemical; conditions: FIG. 17B
From the text: FIGS. 17A, 17B, 17C, and 17D are graphs showing data from the high throughput translocation assay. FIG. 17A is a graph showing a stable prf-fluorescence increase at different G418 concentrations [G418] due to eEF2-dependent conversion of a Stop-PRE6 complex to a Stop-POST6 complex, resulting from the increase in quantum yield of Trp-tRNA(prf). FIG. 17B is a graph showing fluorescence results in FIG. 17A as a function of [G418]. FIG. 17C is a graph showing the kinetics of Stop-PRE6 translocation, measured at 1 μM eEF2 and 2 μM G418. FIG. 17D is a graph showing the kinetics of Trp-PRE6 translocation to Trp-POST6 measured at 0.05 μM of eEF2 in the absence of G418.
Different proflavin-labeled aa-tRNAs, denoted aa-tRNA(prf)s, were used to monitor the elongation cycle changes by fluorescence change at 511 nm following excitation at 458 nm (Ng et al. PNAS, 118(2) e2020599118, 1-10 (2021)). Binding of Trp-TC(prf) to a Trp-POST5 complex in the presence of eEF2 lead to a biphasic increase, with the first, more rapid phase corresponding to formation of Trp-PRE6, followed by a slower, eEF2-dependent phase corresponding to conversion of Trp-PRE6 into Trp-POST6. The translocation step was monitored using a plate-reader assay for both G418-stimulated readthrough of Stop-POST5 (FIGS. 17A-17C) and cognate elongation of Trp-POST5 (FIG. 17D) by adjustment of [eEF2].

[2] = Solubility in aqueous medium; format: physicochemical
[3] = tested on: rRNA fragments I-IV of Stop-POST5; assay: RNaseH fragment assay, Stop-POST5; format: binding, shrimp (Artemia salina)
Experimental: (§1) RNaseH Fragment Assay. Total RNA was prepared from the ^3H-AzAt photoaffinity labeled ribosome by phenol-chloroform extraction. RNA: DNA duplexes were formed by incubating total RNA (0.2 μM) with an oligonucleotide pair (1 μM of each, sequences shown Table 1), flanking a specific RNA region, in 22.8 μL of water at 95° C. for 2 min, followed by annealing at 50° C. for 30 s and quenching on ice. Six units (1.2 μL) of RNase H (NEB) and 6 μl of 5×RNase H Reaction Buffer were next added to the RNA: DNA duplex and incubated at 37° C. for 1 hour, followed by phenol-chloroform extraction of RNA. The digested RNA was separated on 12% TBE-Urea PAGE gel, and the target band along with the adjacent upper and bottom gels were sliced by a 2 mm gel cutter. The gel slices were crushed and the ^3H labeled rRNA fragment was extracted in water by vigorously shaking at 70° C. for 30 min, or by overnight extraction in elution buffer (0.3M sodium acetate, 0.25% SDS, 1 mM EDTA). The slurry was removed by centrifugation and the eluted ^3H labeled rRNA in the supernatant was quantified. The stoichiometry of AzAt photoincorporation was calculated based on a gel recovery yield of 20±2%, determined using an authentic sample of [^3H]-Gln-tRNA^Gln.
Testing the functional pertinence of AzAt photolabeling of 18S A1195, 28S-A3093, 28S-A2672, and 28S-2669. An RNAse H fragment assay was employed to determine whether the potential functionally significant sites identified by LASER-seq correspond to ataluren binding sites relevant for termination activity. In this assay, oligonucleotide hybridization, RNase H digestion and polyacrylamide gel electrophoresis (PAGE) were used to determine the stoichiometry of [^3H]-AzAt photoincorporation into the three rRNA fragments that together include the four nucleotides of interest: Fragment I, 18S-A1195; Fragment II, 26S-A3093; Fragment III, 26S-A2669 and 26S-A2672 (Table 5). The separate addition of four potential competitors of AzAt binding (eRF1 alone, the stably bound eRF1.eRF3.GDPNP complex, ataluren, and the ataluren-like TRID GJ072) was used to test how these affected such photoincorporation. These experiments, the results of which are summarized in Table 5, were performed at two different AzAt concentrations. eRF1 and eRF1.eRF3.GDPNP effects were measured using 300 μM AzAt, paralleling the LASER-Seq PAL experiments.

[4] = tested on: Small RNAs within Stop-POST5 complex; assay: AzAt photoincorporation into small RNAs (urea-PAGE, RNAse H fragments); format: binding, shrimp (Artemia salina)
Experimental: FIG. 11 illustrates 8% Urea-PAGE resolution of small RNAs.
(§2) Photoaffinity labeling with [^3H]-AzAt. Samples in Buffer 4, typically 20 μL, were incubated in the dark (20 min for Stop-POST5 and 80S-IRES complexes, 2 min for release factors) with various concentrations of [^3H]-AzAt at 37° C., transferred to a UV-transparent cuvette which was covered with parafilm to prevent evaporation, and irradiated in a Rayonet photochemical reactor equipped with 300 nm UV lamps for 5 min at room temperature. This was followed by quenching with 2 mM DTT at 37° C. for 5 min under ambient light. The irradiation time gave complete photolysis of the phenyl azide moiety in AzAt. Photolysis was also complete at 5 min in the presence of 1 mM ataluren, ruling out internal filtering effects.
Stop-POST5 and 80S-IRES complexes. 1 μM solutions of either Stop-POST5 or 80S-S.IRES, determined by A260, were photolabeled by [^3H]-AzAt. The sample was then either directly purified by ultracentrifugation through a sucrose cushion to determine the photoincorporation stoichiometry in the complex, or subjected to phenol/chloroform extraction to determine the photoincorporation stoichiometry in the total RNA. To determine the photoincorporation background arising from incomplete removal of noncovalently bound photolyzed AzAt, AzAt was prephotolysed for 5 min before adding to the complex, followed by the 20 min incubation in dark at 37° C. and subsequent sucrose cushion purification or RNA extraction as described above.
as §1
Small RNAs. AzAt photoincorporation into the 4 small RNAs (CrPV-IRES, 5.8S rRNA, 5S rRNA, and tRNA) contained within POST5 was examined by one-dimensional (1D) urea-PAGE analysis, by RNA-Seq, and by RNAse H fragment assay (FIG. 11).

[5] = molecular target: T1, eRF1.eRF3.GDPNP ternary complex (Saccharomyces cerevisiae, UniProt P12385); assay: [3H]-AzAt photoaffinity labeling of eRF1 within ternary complex; format: binding; conditions: compared with isolated eRF1, FIG. 2E
T1 construct: made in house; host or cells: E. coli BL21(DE3) CodonPlus
Experimental: as §2
(§3) Photoaffinity labeling of release factors. Solutions containing eRF1 (10 μM), eRF3 (20 μM) and 1 mM GMPPMP were pre-incubated at 37° C. for 2 min to form the ternary complex prior to photolabeling with [^3H]-AzAt. After quenching, reaction mixtures were loaded onto a 4-15% mini protean SDS-PAGE gel for protein separation and isolation. Gel slices containing eRF1 or eRF3, as shown by Coomassie Blue R250 staining, were crushed and the radioactivity was extracted in extraction buffer (50 mM Tris-HCl, 150 mM NaCl, and 0.1 mM EDTA; pH 7.5) by vigorously shaking at 70° C. for 30 min. The data fitting was performed using the software Prism. Labeling results of eRF1 alone and within the eRF1.eRF3.GDPNP complex were fit with a one-site binding model and a two-site binding model, respectively.

eRF1 = molecular target: T2, eRF1 (Saccharomyces cerevisiae, UniProt P12385); assay: [3H]-AzAt photoaffinity labeling of isolated eRF1; format: binding; conditions: FIG. 2E
T2 construct: made in house; host or cells: E. coli BL21(DE3) CodonPlus
Experimental: as §2, §3

[6] = Stop-POST5, PAL, 30 μM AzAt, alone or plus Ataluren 500 μM / GJ072 150 μM named as label
[7] = PAL, 30 μM AzAt, alone or plus competing ligand named as label

T1 sequence (P05453 166-685): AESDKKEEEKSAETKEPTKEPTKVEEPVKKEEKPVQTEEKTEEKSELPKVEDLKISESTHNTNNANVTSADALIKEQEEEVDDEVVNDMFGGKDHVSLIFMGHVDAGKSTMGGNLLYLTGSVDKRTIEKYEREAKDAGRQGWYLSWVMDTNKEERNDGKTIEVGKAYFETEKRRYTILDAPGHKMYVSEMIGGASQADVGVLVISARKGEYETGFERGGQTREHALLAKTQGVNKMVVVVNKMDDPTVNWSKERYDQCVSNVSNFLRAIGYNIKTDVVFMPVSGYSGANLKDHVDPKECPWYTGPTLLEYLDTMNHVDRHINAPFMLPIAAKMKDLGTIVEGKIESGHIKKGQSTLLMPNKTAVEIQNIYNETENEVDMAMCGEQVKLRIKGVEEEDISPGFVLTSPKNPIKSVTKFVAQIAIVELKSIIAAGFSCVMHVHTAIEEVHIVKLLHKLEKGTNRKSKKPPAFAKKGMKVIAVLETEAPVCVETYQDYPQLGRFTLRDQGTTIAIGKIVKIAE
T1 sequence (P12385 whole entry): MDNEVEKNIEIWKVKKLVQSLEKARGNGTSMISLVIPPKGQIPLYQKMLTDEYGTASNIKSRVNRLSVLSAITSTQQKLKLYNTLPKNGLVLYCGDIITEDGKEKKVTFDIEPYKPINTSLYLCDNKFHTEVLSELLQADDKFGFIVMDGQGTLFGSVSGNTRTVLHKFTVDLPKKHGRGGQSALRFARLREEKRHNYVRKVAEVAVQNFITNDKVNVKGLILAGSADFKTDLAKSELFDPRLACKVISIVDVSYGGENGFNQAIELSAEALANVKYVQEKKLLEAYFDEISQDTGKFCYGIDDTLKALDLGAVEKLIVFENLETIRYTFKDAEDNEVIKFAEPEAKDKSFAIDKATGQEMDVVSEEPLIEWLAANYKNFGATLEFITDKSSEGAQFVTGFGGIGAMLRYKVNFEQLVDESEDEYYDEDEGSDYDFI
T2 sequence (P12385 whole entry): as above

## CN[C@@H]1[C@@H](O)[C@@H](O[C@@H]2[C@@H](O)[C@H](O[C@H]3O[C@H]([C@@H](C)O)[C@@H](O)[C@H](O)[C@H]3N)[C@@H](N)C[C@H]2N)OC[C@]1(C)O [G418]
[1]
  EC50 value, G418-stimulated readthrough translocation: fully consistent with previous determination

## COc1cccc(-n2c(SCC(=O)Nc3ccc(F)cc3)nnc2-c2ccccn2)c1 [GJ072]
[2]
  solubility in aqueous medium: limited solubility
[3]
  effect on AzAt photoincorporation into Fragment IV (26S A1437/A1438): neither ataluren nor GJ072 reduce labeling at all
[3]; Stop-POST5
  effect on AzAt photoincorporation into Fragment I (18S-A1195): strongly inhibited
  effect on AzAt photoincorporation into Fragment II (A3093): stimulated
  effect on AzAt photoincorporation into Fragment III (A2669/A2672): only weakly inhibited
[3]; [6]
  Photoincorporation yields into 18S A1195/ I: 18S 1151-1206: 0.10 ± 0.01 mole %
  Photoincorporation yields into 26S-A2669:A2672/ III: 26S 2638-2702: 0.07 ± 0.01 mole %
  Photoincorporation yields into 26S-A3093/ II: 26S 3069-3113: 0.07 ± 0.01 mole %
  Photoincorporation yields into RNAse H Fragment IV: 26S 1413-1476: 0.019 ± 0.004%
[4]; PAL, 30 μM AzAt, alone (AzAt) or plus competing ligand named as label (Ataluren 500 μM, GJ072 150 μM)
  Photoincorporation yields into CrPV-IRES nts1-155: 0.51 ± 0.03 mole %
[4]; [7]
  Photoincorporation yields into 5S rRNA: 0.15 ± 0.01 mole %
  Photoincorporation yields into 5.8S rRNA: 0.19 ± 0.07 mole %
  Photoincorporation yields into CrPV-IRES All: 0.59 ± 0.14 mole %
  Photoincorporation yields into CrPV-IRES nts156-221: 0.22 ± 0.05 mole %
  Photoincorporation yields into CrPV-IRES nts222-278: 0.09 ± 0.05 mole %
  Photoincorporation yields into tRNA^Gln: 0.25 ± 0.03 mole %
[4]; RNAse H fragment assay
  effect on AzAt labeling of CrPV-IRES fragments 1-155 and 156-221: no clearly significant changes
[4]; none clearly significant
  effect on AzAt labeling of small RNAs: generally small reductions
[5]
  inhibition of AzAt photoincorporation into eRF1 within the ternary complex: less marked
eRF1
  effect on AzAt photoincorporation into isolated eRF1: substantially inhibited
